The term IC50 denotes the midpoint of a concentration-inhibition curve. A lower IC50 goes with inhibition by little substance. In general, EC50 refers to the concentration that produces a half-maximal response.

Calls of active or inactive are those of the source. The rule behind the calls is not given here.

Assay [1] has as its system K562. The assay can be described thus: Antiproliferative activity against human K562 cells after 48 hrs. To be noted: K562, 48 h. Type of assay: functional, cell-based.
Assay [2] deals with Tubulin (Sus scrofa, UniProt P02554+P02550). The assay can be described thus: Inhibition of pig brain tubulin polymerization after 30 mins by turbidimetry.
The nature of assay [3]: Antiproliferative activity against human KB/HeLa cells after 48 hrs by XTT assay. The format is functional, cell-based. (Formazan colour is commonly taken as a measure of viable cells.)
Assay [4] has as its system SK-OV-3. The assay can be described thus: Antiproliferative activity against human SKOV3 cells after 48 hrs by XTT assay. Type of assay: functional, cell-based. To be noted: SK-OV-3, 48 h.
In assay [5] the test system is SF-268. The assay can be described thus: Antiproliferative activity against human SF268 cells after 48 hrs by XTT assay. The format is functional, cell-based. To be noted: SF-268, 48 h.
Assay [6] relates to NCI-H460. Put plainly: Antiproliferative activity against human NCI-H460 cells after 48 hrs by XTT assay. Type of assay: functional, cell-based. To be noted: NCI-H460, 48 h.
Assay [7] has as its system RKO. The assay can be described thus: Antiproliferative activity against human RKO cells after 48 hrs by XTT assay. The format is functional, cell-based.
Assay [8] is described as follows: Antiproliferative activity against rat LT12 cells after 48 hrs by XTT assay. To be noted: LT12, 48 h. Type of assay: functional, cell-based.
Assay [9] concerns RKO. Put plainly: Antiproliferative activity against human RKO cells expressing p27Kip1 after 48 hrs by XTT assay. Type of assay: functional, cell-based.
The nature of assay [10]: Antiproliferative activity against multi drug-resistant rat LT12 cells after 48 hrs by XTT assay. The format is functional, cell-based. To be noted: LT12, 48 h.
Assay [11] relates to L1210. Put plainly: Antiproliferative activity against mouse L1210 cells after 48 hrs by XTT assay. To be noted: L1210, 48 h. Type of assay: functional, cell-based.
The subject of assay [12] is L1210. The assay can be described thus: Antiproliferative activity against vincristine-resistant mouse L1210 cells after 48 hrs by XTT assay. The format is functional, cell-based. To be noted: L1210, 48 h.
The subject of assay [13] is P388. Put plainly: Antiproliferative activity against mouse P388 cells after 48 hrs by XTT assay. Type of assay: functional, cell-based. To be noted: P388, 48 h.
Assay [14] relates to P388. Put plainly: Antiproliferative activity against adriamycin-resistant mouse P388 cells after 48 hrs by XTT assay. The format is functional, cell-based. To be noted: P388, 48 h.
A short description of assay [15]: Cell cycle arrest in human KB/HeLa cells assessed as accumulation at G2/M phase after 24 hrs using propidium iodide staining by FACS analysis. The format is functional, cell-based. Background: Flow cytometry measures light scatter and fluorescence of single cells or particles in a stream.
Assay [16] addresses Tubulin (Sus scrofa) (UniProt P02554+P02550). Put plainly: Ratio of compound IC50 to colchicine IC50 for inhibition of pig brain tubulin polymerization.
A short description of assay [17]: Displacement of [3H]colchicine from biotin-labeled tubulin after 2 hrs by scintillation proximity assay. (In general: Loss of bound radioactivity is the signal in a displacement assay; it reports binding, not function.)
Assay [18] can be described thus: Displacement of [3H]paclitaxel from biotin-labeled tubulin after 2 hrs by scintillation proximity assay.
In assay [19] the test system is PtK2. The assay can be described thus: Disruption of microtubule network in rat kangaroo PtK2 cells at 5 uM after 1 hr by immunofluorescence microscopic analysis. To be noted: Potorous tridactylus. The format is functional, cell-based.

Chain of Tubulin (Sus scrofa) (P02550 whole entry, looked up): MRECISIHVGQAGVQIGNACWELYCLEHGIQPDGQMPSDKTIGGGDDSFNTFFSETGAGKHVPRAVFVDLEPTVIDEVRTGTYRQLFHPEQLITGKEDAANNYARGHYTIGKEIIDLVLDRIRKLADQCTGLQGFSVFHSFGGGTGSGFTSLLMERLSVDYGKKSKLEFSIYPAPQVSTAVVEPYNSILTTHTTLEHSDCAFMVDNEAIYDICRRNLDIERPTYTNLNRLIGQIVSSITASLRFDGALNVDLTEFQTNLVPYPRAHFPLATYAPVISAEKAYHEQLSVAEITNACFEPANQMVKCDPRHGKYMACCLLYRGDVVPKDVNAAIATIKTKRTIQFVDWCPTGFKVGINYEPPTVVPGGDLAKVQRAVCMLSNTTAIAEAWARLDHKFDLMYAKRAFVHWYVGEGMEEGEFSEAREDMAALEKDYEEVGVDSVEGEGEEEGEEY
Chain of Tubulin (Sus scrofa) (P02554 whole entry, looked up): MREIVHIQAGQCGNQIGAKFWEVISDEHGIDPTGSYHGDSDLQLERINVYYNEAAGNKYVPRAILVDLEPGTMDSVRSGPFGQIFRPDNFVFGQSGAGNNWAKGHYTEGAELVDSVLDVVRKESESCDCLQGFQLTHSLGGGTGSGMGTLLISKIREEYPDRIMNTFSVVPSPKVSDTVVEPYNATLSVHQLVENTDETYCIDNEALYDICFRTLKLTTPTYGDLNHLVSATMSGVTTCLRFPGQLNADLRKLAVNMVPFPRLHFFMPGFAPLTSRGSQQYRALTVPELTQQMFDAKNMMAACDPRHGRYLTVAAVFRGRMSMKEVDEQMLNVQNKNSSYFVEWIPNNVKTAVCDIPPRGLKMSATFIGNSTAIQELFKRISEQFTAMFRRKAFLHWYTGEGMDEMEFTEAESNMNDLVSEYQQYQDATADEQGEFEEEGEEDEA

As for `COc1ccc(C=C2c3cccc(Cl)c3C(=O)c3c(Cl)cccc32)cc1O`, the IC50 stood at 250 nM in [1]; 360 nM in [2]; 140 nM in assay [3]; 140 nM in assay [4]; 170 nM in [5]; 210 nM in assay [6]. For the same molecule, the IC50 was 160 nM in [7]; 630 nM in assay [8]; over 9000 nM in assay [9]; 290 nM in assay [10]; 510 nM in assay [11]; 300 nM in [12]. Also, the IC50 was 390 nM in [13], 640 nM in [14] and 1380 nM in [17]. For the same molecule, the EC50 in assay [15] came out at 118 nM. Further, the Ratio IC50 in [16] is 4. Moreover, the outcome in assay [18] was inactive.

For `CC(=O)O[C@H]1C(=O)[C@@]2(C)[C@H]([C@H](OC(=O)c3ccccc3)[C@]3(O)C[C@H](OC(=O)[C@H](O)[C@@H](NC(=O)c4ccccc4)c4ccccc4)C(C)=C1C3(C)C)[C@]1(OC(C)=O)CO[C@@H]1C[C@@H]2O` [PACLITAXEL], the IC50 in assay [3] is 10 nM; in assay [9], over 3000 nM; in assay [10] it was 400 nM; in assay [12], over 5000 nM; in assay [14], over 5000 nM. The EC50 in [15] was 49 nM.

On to `COc1ccc(C=C2c3cccc(Cl)c3C(=O)c3c(Cl)cccc32)c(OC)c1O`, for which the IC50 in [1] was 100 nM; in assay [2], 360 nM; in [3], 130 nM; in [4], 160 nM; in assay [5] it was 140 nM; in [6], 170 nM. For the same molecule, the IC50 in assay [7] was 160 nM; in assay [8], 370 nM; in [9], over 9000 nM; in [10], 170 nM; in [11], 350 nM; in [12] it was 230 nM. For the same molecule, the figures for the IC50 in [13], in assay [14] and in [17] were 320 nM, 460 nM and 1170 nM, respectively. In [15], the EC50 turned out to be 111 nM. For the same molecule, the Ratio IC50 in assay [16] is 4. Also, the result in assay [18] was inactive.

As for `COc1cc(C(=O)/C=C2\c3cccc(Cl)c3C(=O)c3cccc(Cl)c32)cc(OC)c1OC`, the IC50 stood at 230 nM in [1] and 360 nM in [2]. Besides, the outcome in assay [19] was Active.

For the origin of these results see ChEMBL document CHEMBL1208684 (Eur J Med Chem, 2010).
